Source: patent US20030206882A1, “Fatty acid sanitizer” (priority 2002, published 2003)

Columns and labels:
[1] = tested on: Staphylococcus aureus ATCC 6538; assay: Sanitizing Efficacy/Germicidal and Detergent Sanitizing Action of Disinfectants; type: cell-based; details: summary of Table 7, heptanoic acid without coupler
Description: Sanitizing Efficacy/Germicidal and Detergent Sanitizing Action of Disinfectants—Final Action
This test measures the sanitizing efficacy against Staphylococcus aureus ATCC 6538 and Escherichia coli ATCC 11229 with a 10% milk challenge at a 15 second exposure time. A 10% milk challenge is achieved by adding 90 ml of the test formulation to 10 ml of milk, mixing, and removing 1 ml for a final volume of 99 ml.

[2] = Compatibility/stability of the aqueous composition; type: physicochemical; details: heptanoic acid alone versus with sulfonate coupler

- compatibility (stability) of the composition (in words) [2]: less compatibility
SMILES: CCCCCCC(=O)O [heptanoic acid]
- antimicrobial efficacy (in words) [1]: satisfactory antimicrobial efficacy
